{
  "source": "paper PMC4860888",
  "about": "(Theranostics, 2016)",
  "key": {"[1]": {"test_system": "AK7 murine mesothelioma cells", "type": "in vivo, C57Bl/6 mice", "conditions": "decitabine 4 µg/g i.p. days 7 and 9"}, "HDAC": {"test_system": "HDAC", "conditions": "cited from earlier work"}},
  "data": [
    {"smiles": "Nc1ncn([C@H]2C[C@H](O)[C@@H](CO)O2)c(=O)n1", "note": "[decitabine]", "values": [
      {"measurement": "Anti-tumor effect by itself", "setting": "[1]", "result": "no anti-tumor effect"}
    ]},
    {"smiles": "CC(C=CC(=O)NO)=C[C@H](C)C(=O)c1ccc(N(C)C)cc1", "note": "[(S)-isomer]", "values": [
      {"measurement": "Fold less potent than (R)-trichostatin A", "setting": "HDAC", "result": 70, "unit": "fold"}
    ]}
  ]
}
